Results reported in patent EP0000636A1, “Penem compounds, processes for their preparation, their use in pharmaceutical compositions and azetidinones used in their preparation” (GLAXO GROUP LIMITED, priority 1977, dated 1979).
In brackets after ≈: the same amount, converted by molar mass. Read-outs that look alike come from different tables or passages of the source.

Columns and labels:
H. influenzae 1184E = test: Determination of Minimum Inhibitory Concentrations (MIC), agar dilution; type: cell-based; conditions: Haemophilus influenzae
Source text: (§1) Biological testing of a number of compounds of the invention has provided the results shown below;-the test compounds are identified by their Example Numbers: 1. Determination of Minimum Inhibitory Concentrations (MIC)
(§2) Serial two-fold dilutions of freshly prepared test solutions were made into Oxoid No. 1 Nutrient agar with or without added enrichment and poured into petri diches. Plates were inoculated with a multipoint inoculator with inoculum containing approximately 10^5 colony forming units of the organisms shown in the following Tables, all of which organisms are clinical isolates. The MIC, quoted in the Tables as µg/ml, was read after 18 hours incubation at 37°C as the lowest concentration which inhibited growth.. N.T. means not tested.

S. marcescens 1324E = test: as above; type: cell-based; conditions: Serratia marcescens
Source text: as §1, §2

E. coli 851E = test: as above; type: cell-based; conditions: Escherichia coli
Source text: as §1, §2

K. aerogenes 1522E = test: as above; type: cell-based; conditions: Klebsiella aerogenes
Source text: as §1, §2

Staph.aureus 853E = test: as above; type: cell-based; conditions: Staphylococcus aureus
Source text: as §1, §2

E. cloacae 1051E = test: as above; type: cell-based; conditions: Enterobacter cloacae
Source text: as §1, §2

Micrococcus Sp 1810E = test: as above; type: cell-based; conditions: SP1810E
Source text: as §1, §2

E. cloacae 1321E = test: as above; type: cell-based; conditions: Enterobacter cloacae
Source text: as §1, §2

Toxicity (LD50) in mice = conditions: mouse, in vivo, ip; administered intraperitoneally to mice
[1] = H. influenzae 1184E, clinical isolate, Oxoid No. 1 Nutrient agar, approximately 10^5 colony forming units, 18 hours at 37°C, read-out: MIC
[2] = S. marcescens 1324E, clinical isolate, Oxoid No. 1 Nutrient agar, approximately 10^5 colony forming units, 18 hours at 37°C, read-out: MIC
[3] = E. coli 851E, clinical isolate, Oxoid No. 1 Nutrient agar, approximately 10^5 colony forming units, 18 hours at 37°C, read-out: MIC
[4] = K. aerogenes 1522E, clinical isolate, Oxoid No. 1 Nutrient agar, approximately 10^5 colony forming units, 18 hours at 37°C, read-out: MIC
[5] = Staph.aureus 853E, clinical isolate, Oxoid No. 1 Nutrient agar, approximately 10^5 colony forming units, 18 hours at 37°C, read-out: MIC
[6] = E. cloacae 1051E, clinical isolate, Oxoid No. 1 Nutrient agar, approximately 10^5 colony forming units, 18 hours at 37°C, read-out: MIC
[7] = Micrococcus Sp 1810E, clinical isolate, Oxoid No. 1 Nutrient agar, approximately 10^5 colony forming units, 18 hours at 37°C, read-out: MIC
[8] = E. cloacae 1321E, clinical isolate, Oxoid No. 1 Nutrient agar, approximately 10^5 colony forming units, 18 hours at 37°C, read-out: MIC

Compound	MIC (H. influenzae 1184E; 1184E, 18 h) [mg/L]	MIC (S. marcescens 1324E; 1324E, 18 h) [mg/L]	MIC (E. coli 851E; 851E, 18 h) [mg/L]	MIC (K. aerogenes 1522E; 1522E, 18 h) [mg/L]	MIC (Staph.aureus 853E; 853E, 18 h) [mg/L]	MIC (E. cloacae 1051E; 1051E, 18 h) [mg/L]	MIC (Micrococcus Sp 1810E; Micrococcus, 18 h) [mg/L]	MIC (E. cloacae 1321E; 1321E, 18 h) [mg/L]	MIC (H. influenzae 1184E; [1]) [mg/L]	MIC (S. marcescens 1324E; [2]) [mg/L]	MIC (E. coli 851E; [3]) [mg/L]	MIC (K. aerogenes 1522E; [4]) [mg/L]	MIC (Staph.aureus 853E; [5]) [mg/L]	MIC (E. cloacae 1051E; [6]) [mg/L]	MIC (Micrococcus Sp 1810E; [7]) [mg/L]	MIC (E. cloacae 1321E; [8]) [mg/L]	LD50 (Toxicity (LD50) in mice) [mg/kg]
O=C(CCl)OCCC1=C(C(=O)[O-])N2C(=O)CC2S1.[K+] (racemic) [Example 57, Potassium (5RS)-2-[2-(2-chloroacetyl)oxyethyl]pen-2-em-3-carboxylate]	4	8	8	8	0.5	16	0.2	8	–	–	–	–	–	–	–	–	–
COCCC1=C(C(=O)[O-])N2C(=O)CC2S1.[Na+] (racemic) [Example 45, Sodium (5RS)-2-(2-methoxyethyl)pen-2-em-3-carboxylate]	4	8	2	4	0.5	8	< 0.1	2	–	–	–	–	–	–	–	–	–
CNC(=O)OCCC1=C(C(=O)O)N2C(=O)CC2S1 (racemic) [Example 21]	–	–	–	–	–	–	–	–	4 (≈ 14.7 µM)	4 (≈ 14.7 µM)	4 (≈ 14.7 µM)	4 (≈ 14.7 µM)	0.2 (≈ 0.735 µM)	31 (≈ 114 µM)	< 0.1	4 (≈ 14.7 µM)	–
O=C([O-])C1=C(CCOC2CCCCO2)SC2CC(=O)N12.[K+] (racemic) [Example 43, Potassium (5RS)-2-[2-(tetrahydropyran-2-yloxy)ethyl]-pen-2-em-3-carboxylate]	–	–	–	–	–	–	–	–	–	–	–	–	–	–	–	–	> 500
CCC1=C(C(=O)[O-])N2C(=O)CC2[S+]1[O-].[K+] (racemic) [Example 36, Potassium (5RS)-2-ethylpen-2-em-3-carboxylate-1-oxide]	2	8	8	8	0.5	8	0.1	8	–	–	–	–	–	–	–	–	> 500
CCCC1=C(C(=O)O)N2C(=O)CC2S1 (racemic) [Example 28, (5RS)-2-ProD^ylpen-2-em-3-carboxylic acid]	–	–	–	–	–	–	–	–	1 (≈ 4.69 µM)	1 (≈ 4.69 µM)	0.5 (≈ 2.34 µM)	0.5 (≈ 2.34 µM)	< 0.1	4 (≈ 18.8 µM)	< 0.1	0.5 (≈ 2.34 µM)	–
CC1=C(C(=O)O)N2C(=O)CC2S1 (single isomer, unassigned) [Example 6]	–	–	–	–	–	–	–	–	4 (≈ 21.6 µM)	8 (≈ 43.2 µM)	8 (≈ 43.2 µM)	16 (≈ 86.4 µM)	1 (≈ 5.4 µM)	16 (≈ 86.4 µM)	0.2 (≈ 1.08 µM)	8 (≈ 43.2 µM)	–
COCC1=C(C(=O)O)N2C(=O)CC2S1 (racemic) [Example 52, Potassium (5RS)-2-methoxymethylen-2-em-3-carboxylate]	–	–	–	–	–	–	–	–	4	4	4	4	0.5	8	0.2	2	–
NC(=O)OCCC1=C(C(=O)O)N2C(=O)CC2S1 (racemic) [Example 18, (5RS)-2-(2-Carbamoyloxethyl)pen-2-em-3-carboxlic acid]	–	–	–	–	–	–	–	–	2 (≈ 7.74 µM)	4 (≈ 15.5 µM)	2 (≈ 7.74 µM)	4 (≈ 15.5 µM)	< 0.1	8 (≈ 31 µM)	< 0.1	2 (≈ 7.74 µM)	–
CCCCC1=C(C(=O)O)N2C(=O)CC2S1 (racemic) [Example 26, (5RS)2-n-Butylpen-2-em-3-carboxylic acid]	–	–	–	–	–	–	–	–	4 (≈ 17.6 µM)	31 (≈ 136 µM)	31 (≈ 136 µM)	31 (≈ 136 µM)	0.5 (≈ 2.2 µM)	125 (≈ 550 µM)	–	31 (≈ 136 µM)	–
CC(=O)OCCC1=C(C(=O)O)N2C(=O)CC2S1 (racemic) [Example 13, Potassium (5RS)-2-(2-acetoxethyl)pen-2-em-3-carbolate]	–	–	–	–	–	–	–	–	–	62	4	8	0.5	16	0.2	2	–
O=C(O)C1=C(CCO)SC2CC(=O)N12 (racemic) [Example 11, Potassium (5RS)-2-(2-hdroxethyl)pen-2-em-3-carboxylate]	–	–	–	–	–	–	–	–	8	8	4	8	0.5	8	< 0.1	4	–
